According to patent US20240066087A1, “SUTHERLANDIA EXTRACT AND THE USE THEREOF IN THE MANUFACTURE OF A MEDICAMENT” (ACUPHARM INTERNATIONAL PROPRIETARY LIMITED, priority 2020, published 2024):

What follows are compounds tested on cultured tissue from needle biopsy, Breast DCIS papillary neoplasm (assay: dose response study with cumulative cell death on cultured patient biopsy tissue (patient 19055)). Details: in vitro cultured biopsy sample, patient 19055, Breast DCIS papillary neoplasm.
Format: cell-based, human
Description: Comparative studies were performed using Sutherlandia leaf extract in water (referred to as ACPJL35), Sutherlandia leaf extract in 50% ethanol and water solution (referred to as ACPJL28), and Sutherlandia leaf extract in 90% ethanol and water solution (referred to as ACPJL07). These extracts were compared to a number of known botanical isolates with anti-cancer activity, as well as a number of known anti-cancer drugs, using a dose response design with cumulative cell death as the dependent variable. These studies were conducted on in vitro samples of cultured tissue, taken as biopsy samples from patients as part of a standard culture and testing process done in order to optimise treatment.
Patient from whom sample was obtained was a person presenting with a diagnosis of Breast DCIS papillary neoplasm. The sample was obtained via needle biopsy, before being cultured.
`COc1cc2ncnc(Nc3ccc(F)c(Cl)c3)c2cc1OCCCN1CCOCC1` [Gefitinib] was tested, and the “efficacy assessment from dose response (dose-CR curve), cumulative cell death as dependent variable” value (“efficacy assessment from dose response” for short) was “having potential benefit”. With `O=C(CCCCCCC(=O)Nc1ccccc1)NO` [Vorinostat] the “efficacy assessment from dose response” value was “having potential benefit”. In the case of `CCC1=C[C@@H]2CN(C1)Cc1c([nH]c3ccccc13)[C@@](C(=O)OC)(c1cc3c(cc1OC)N(C)[C@H]1[C@@](O)(C(=O)OC)[C@H](OC(C)=O)[C@]4(CC)C=CCN5CC[C@]31[C@@H]54)C2` [Vinorelbine], the “efficacy assessment from dose response” value is reported as “having potential benefit”. `CC(=O)O[C@H]1C(=O)[C@@]2(C)[C@H]([C@H](OC(=O)c3ccccc3)[C@]3(O)C[C@H](OC(=O)[C@H](O)[C@@H](NC(=O)c4ccccc4)c4ccccc4)C(C)=C1C3(C)C)[C@]1(OC(C)=O)CO[C@@H]1C[C@@H]2O` [Paclitaxel] was tested, and the “efficacy assessment from dose response” value was “having potential benefit”. `COC(=O)c1ccc2c(c1)NC(=O)/C2=C(\Nc1ccc(N(C)C(=O)CN2CCN(C)CC2)cc1)c1ccccc1` [Nintedanib] was tested, and the “efficacy assessment from dose response” value was “good efficacy and a positive dose response curve”. `Nc1nc(Cl)nc2c1ncn2[C@@H]1O[C@H](CO)[C@@H](O)[C@@H]1F` [Clofarabine] was tested, and the “efficacy assessment from dose response” value was “having potential benefit”. For `COc1cc2c(Oc3ccc4[nH]c(C)cc4c3F)ncnc2cc1OCCCN1CCCC1` [Cediranib], the “efficacy assessment from dose response” value was “having potential benefit”. In the case of `CC[C@]1(O)C[C@H]2CN(CCc3c([nH]c4ccccc34)[C@@](C(=O)OC)(c3cc4c(cc3OC)N(C=O)[C@H]3[C@@](O)(C(=O)OC)[C@H](OC(C)=O)[C@]5(CC)C=CCN6CC[C@]43[C@@H]65)C2)C1` [Vincristine], the “efficacy assessment from dose response” value is reported as “having potential benefit”. With `CC(=O)O[C@@]12CO[C@@H]1C[C@H](O)[C@@]1(C)C(=O)[C@H](O)C3=C(C)[C@@H](OC(=O)[C@H](O)[C@@H](NC(=O)OC(C)(C)C)c4ccccc4)C[C@@](O)([C@@H](OC(=O)c4ccccc4)[C@H]21)C3(C)C` [Docetaxel] the “efficacy assessment from dose response” value was “having potential benefit”. For `O=C1c2c(O)ccc(O)c2C(=O)c2c(NCCNCCO)ccc(NCCNCCO)c21` [Mitoxantrone], the “efficacy assessment from dose response” value was “having potential benefit”.
